Source: patent US20230085307A1, “PYRIDAZINONE COMPOUND AND HERBICIDE” (NISSAN CHEMICAL CORPORATION, priority 2019, published 2023)

Experiments:
[1] = system: redroot pigweed; assay: Test Example 5: herbicidal effect by foliage application, plastic box (Table 20, symbol N); format: in vivo, redroot pigweed (Amaranthus retroflexus); conditions: foliage application, 320 g/ha
In short: (§1)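 Foliar spray test: emulsion formulation diluted in water to a set application rate, sprayed onto 14-day-old plants raised in diluvial soil at 25° C to 30° C under glass. Both herbicidal effect and crop effect rated visually three weeks later.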

[2] = system: Japanese bulrush; assay: Test Example 1: herbicidal activity, application before weed generation under submerged conditions (Table 16, symbol B); format: in vivo, Japanese bulrush (Schoenoplectus juncoides)
In short: (§2)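 Submerged Wagner pots (alluvial soil, 4 cm water) sown with weed seeds and planted with 2.5-leaf rice seedlings; emulsifiable concentrate diluted in water applied to water surface on sowing day. Held in greenhouse at 25-30 °C; injury scored 0-5 by herbicidal rate after three weeks.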

[3] = system: barnyard grass; assay: Test Example 3: herbicidal effect by foliage application, Wagner pot (Table 18, symbol H); format: in vivo, barnyard grass (Echinochloa crus-galli)
In short: (§3)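 Plants were sown in alluvial soil held under 0.1–0.5 cm standing water and grown 14 days in a greenhouse at 25–30 °C. An emulsifiable formulation, water-diluted to the set dose, was then sprayed onto the foliage, and effects were scored three weeks later using previously defined criteria.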

[4] = system: green foxtail; assay: Test Example 5: herbicidal effect by foliage application, plastic box (Table 20, symbol G); format: in vivo, green foxtail (Setaria viridis); conditions: foliage application, 320 g/ha
In short: as §1

[5] = system: lambsquarters; assay: Test Example 5: herbicidal effect by foliage application, plastic box (Table 20, symbol O); format: in vivo, lambsquarters (Chenopodium album); conditions: foliage application, 320 g/ha
In short: as §1

[6] = system: false cleavers; assay: Test Example 5: herbicidal effect by foliage application, plastic box (Table 20, symbol Q); format: in vivo, false cleavers (Galium spurium); conditions: foliage application, 320 g/ha
In short: as §1

[7] = system: velvetleaf; assay: Test Example 4: herbicidal effect by soil treatment (Table 19, symbol M); format: in vivo, velvetleaf (Abutilon theophrasti); conditions: amount of applied herbicide 320 g/ha
In short: (§4)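 Herbicidal effect was rated 3 weeks after treatment, using the scoring criteria of an earlier test. The compound, formulated as an emulsion and diluted in water to a set herbicide amount, had been sprayed uniformly on soil over freshly sown seeds. Growth took place in a greenhouse at 25° C. to 30° C.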

[8] = system: chickweed; assay: Test Example 4: herbicidal effect by soil treatment (Table 19, symbol P); format: in vivo, common chickweed (Stellaria media); conditions: amount of applied herbicide 320 g/ha
In short: as §4

[9] = system: blackgrass; assay: Test Example 4: herbicidal effect by soil treatment (Table 19, symbol J); format: in vivo, blackgrass (Alopecurus myosuroides); conditions: amount of applied herbicide 320 g/ha
In short: as §4

[10] = system: windgrass; assay: Test Example 4: herbicidal effect by soil treatment (Table 19, symbol L); format: in vivo, windgrass (Apera spica-venti); conditions: amount of applied herbicide 320 g/ha
In short: as §4

[11] = system: Italian ryegrass; assay: Test Example 5: herbicidal effect by foliage application, plastic box (Table 20, symbol K); format: in vivo, Italian ryegrass (Lolium multiflorum); conditions: foliage application, 320 g/ha
In short: as §1

[12] = system: persian speedwell; assay: Test Example 5: herbicidal effect by foliage application, plastic box (Table 20, symbol R); format: in vivo, Persian speedwell (Veronica persica); conditions: foliage application, 320 g/ha
In short: as §1

[13] = system: rice flat sedge; assay: Test Example 3: herbicidal effect by foliage application, Wagner pot (Table 18, symbol E); format: in vivo, rice flat sedge (Cyperus iria)
In short: as §3

[14] = system: lambsquarters; assay: Test Example 4: herbicidal effect by soil treatment (Table 19, symbol O); format: in vivo, lambsquarters (Chenopodium album); conditions: amount of applied herbicide 320 g/ha
In short: as §4

[15] = system: Chinese sprangletop; assay: Test Example 3: herbicidal effect by foliage application, Wagner pot (Table 18, symbol D); format: in vivo, chinese sprangletop (Leptochloa chinensis)
In short: as §3

[16] = system: blackgrass; assay: Test Example 5: herbicidal effect by foliage application, plastic box (Table 20, symbol J); format: in vivo, blackgrass (Alopecurus myosuroides); conditions: foliage application, 320 g/ha
In short: as §1

[17] = system: persian speedwell; assay: Test Example 4: herbicidal effect by soil treatment (Table 19, symbol R); format: in vivo, Persian speedwell (Veronica persica); conditions: amount of applied herbicide 320 g/ha
In short: as §4

[18] = system: southern crabgrass; assay: Test Example 5: herbicidal effect by foliage application, plastic box (Table 20, symbol F); format: in vivo, southern crabgrass (Digitaria ciliaris); conditions: foliage application, 320 g/ha
In short: as §1

[19] = system: barnyard grass; assay: Test Example 4: herbicidal effect by soil treatment (Table 19, symbol H); format: in vivo, barnyard grass (Echinochloa crus-galli); conditions: amount of applied herbicide 320 g/ha
In short: as §4

[20] = system: wild oat; assay: Test Example 4: herbicidal effect by soil treatment (Table 19, symbol I); format: in vivo, wild oat (Avena fatua); conditions: amount of applied herbicide 320 g/ha
In short: as §4

[21] = system: green foxtail; assay: Test Example 4: herbicidal effect by soil treatment (Table 19, symbol G); format: in vivo, green foxtail (Setaria viridis); conditions: amount of applied herbicide 320 g/ha
In short: as §4

[22] = system: Italian ryegrass; assay: Test Example 4: herbicidal effect by soil treatment (Table 19, symbol K); format: in vivo, Italian ryegrass (Lolium multiflorum); conditions: amount of applied herbicide 320 g/ha
In short: as §4

[23] = system: southern crabgrass; assay: Test Example 4: herbicidal effect by soil treatment (Table 19, symbol F); format: in vivo, southern crabgrass (Digitaria ciliaris); conditions: amount of applied herbicide 320 g/ha
In short: as §4

[24] = system: windgrass; assay: Test Example 5: herbicidal effect by foliage application, plastic box (Table 20, symbol L); format: in vivo, windgrass (Apera spica-venti); conditions: foliage application, 320 g/ha
In short: as §1

[25] = system: barnyard grass; assay: Test Example 5: herbicidal effect by foliage application, plastic box (Table 20, symbol H); format: in vivo, barnyard grass (Echinochloa crus-galli); conditions: foliage application, 320 g/ha
In short: as §1

[26] = system: wild oat; assay: Test Example 5: herbicidal effect by foliage application, plastic box (Table 20, symbol I); format: in vivo, wild oat (Avena fatua); conditions: foliage application, 320 g/ha
In short: as §1

[27] = system: late watergrass; assay: Test Example 1: herbicidal activity, application before weed generation under submerged conditions (Table 16, symbol A); format: in vivo, late watergrass (Echinochloa oryzicola)
In short: as §2

[28] = system: redroot pigweed; assay: Test Example 4: herbicidal effect by soil treatment (Table 19, symbol N); format: in vivo, redroot pigweed (Amaranthus retroflexus); conditions: amount of applied herbicide 320 g/ha
In short: as §4

[29] = system: oval-leafed pondweed; assay: Test Example 1: herbicidal activity, application before weed generation under submerged conditions (Table 16, symbol C); format: in vivo, oval-leafed pondweed (Monochoria vaginalis)
In short: as §2

[30] = system: chickweed; assay: Test Example 5: herbicidal effect by foliage application, plastic box (Table 20, symbol P); format: in vivo, common chickweed (Stellaria media); conditions: foliage application, 320 g/ha
In short: as §1

[31] = system: velvetleaf; assay: Test Example 5: herbicidal effect by foliage application, plastic box (Table 20, symbol M); format: in vivo, velvetleaf (Abutilon theophrasti); conditions: foliage application, 320 g/ha
In short: as §1

[32] = evaluated three weeks after application
[33] = amount of applied herbicide 320 g/ha

CCCC(=O)Oc1c(C)nn(C)c(=O)c1-c1c(-c2ccc(OC)c(F)c2)sc2ccc(Cl)cc12 [2-118]
herbicidal effect on N: redroot pigweed [1, 32]: 0 (Herbicidal rate of 5% or less (almost no effect))
Herbicidal effect on B: Japanese bulrush (grade 0-5) ([2]; 320 g/ha applied herbicide): 3 (Herbicidal rate of 40% or more and less than 70%)
herbicidal effect on H: barnyard grass [3, 33]: 2 (Herbicidal rate of 20% or more and less than 40%)
herbicidal effect on G: green foxtail [4, 32]: 0 (Herbicidal rate of 5% or less (almost no effect))
herbicidal effect on O: lambsquarters [5, 32]: 1 (Herbicidal rate of 5% or more and less than 20%)
herbicidal effect on Q: false cleavers [6, 32]: 1 (Herbicidal rate of 5% or more and less than 20%)
M: velvetleaf, herbicidal effect rating [7]: 1 (Herbicidal rate of 5% or more and less than 20%)
P: chickweed, herbicidal effect rating [8]: 4 (Herbicidal rate of 70% or more and less than 90%)
J: blackgrass, herbicidal effect rating [9]: 0 (Herbicidal rate of 5% or less (almost no effect))
L: windgrass, herbicidal effect rating [10]: 0 (Herbicidal rate of 5% or less (almost no effect))
herbicidal effect on K: Italian ryegrass [11, 32]: 0 (Herbicidal rate of 5% or less (almost no effect))
herbicidal effect on R: persian speedwell [12, 32]: 5 (Herbicidal rate of 90% or more (almost completely withered))
herbicidal effect on E: rice flat sedge [13, 33]: 0 (Herbicidal rate of 5% or less (almost no effect))
O: lambsquarters, herbicidal effect rating [14]: 2 (Herbicidal rate of 20% or more and less than 40%)
herbicidal effect on D: Chinese sprangletop [15, 33]: 0 (Herbicidal rate of 5% or less (almost no effect))
herbicidal effect on J: blackgrass [16, 32]: 0 (Herbicidal rate of 5% or less (almost no effect))
R: persian speedwell, herbicidal effect rating [17]: 5 (Herbicidal rate of 90% or more (almost completely withered))
herbicidal effect on F: southern crabgrass [18, 32]: 0 (Herbicidal rate of 5% or less (almost no effect))
H: barnyard grass, herbicidal effect rating [19]: 0 (Herbicidal rate of 5% or less (almost no effect))
I: wild oat, herbicidal effect rating [20]: 0 (Herbicidal rate of 5% or less (almost no effect))
G: green foxtail, herbicidal effect rating [21]: 0 (Herbicidal rate of 5% or less (almost no effect))
K: Italian ryegrass, herbicidal effect rating [22]: 0 (Herbicidal rate of 5% or less (almost no effect))
F: southern crabgrass, herbicidal effect rating [23]: 0 (Herbicidal rate of 5% or less (almost no effect))
herbicidal effect on L: windgrass [24, 32]: 0 (Herbicidal rate of 5% or less (almost no effect))
herbicidal effect on H: barnyard grass [25, 32]: 0 (Herbicidal rate of 5% or less (almost no effect))
herbicidal effect on I: wild oat [26, 32]: 0 (Herbicidal rate of 5% or less (almost no effect))
Herbicidal effect on A: late watergrass (grade 0-5) ([27]; 320 g/ha applied herbicide): 4 (Herbicidal rate of 70% or more and less than 90%)
N: redroot pigweed, herbicidal effect rating [28]: 0 (Herbicidal rate of 5% or less (almost no effect))
Herbicidal effect on C: oval-leafed pondweed (grade 0-5) ([29]; 320 g/ha applied herbicide): 0 (Herbicidal rate of 5% or less (almost no effect))
herbicidal effect on P: chickweed [30, 32]: 5 (Herbicidal rate of 90% or more (almost completely withered))
herbicidal effect on M: velvetleaf [31, 32]: 3 (Herbicidal rate of 40% or more and less than 70%)

CCOc1ccccc1-c1sc2cc(OCc3ccccc3)ccc2c1-c1c(O)c(C)nn(C)c1=O [3-119]
N: redroot pigweed, herbicidal effect grade ([1]; three weeks after application): 5 (Herbicidal rate of 90% or more (almost completely withered))
Herbicidal effect, B: Japanese bulrush [2, 33]: 3 (Herbicidal rate of 40% or more and less than 70%)
herbicidal effect on barnyard grass (H) ([3]; 320 g/ha): 4 (Herbicidal rate of 70% or more and less than 90%)
G: green foxtail, herbicidal effect grade ([4]; three weeks after application): 5 (Herbicidal rate of 90% or more (almost completely withered))
O: lambsquarters, herbicidal effect grade ([5]; three weeks after application): 5 (Herbicidal rate of 90% or more (almost completely withered))
Q: false cleavers, herbicidal effect grade ([6]; three weeks after application): 5 (Herbicidal rate of 90% or more (almost completely withered))
M: velvetleaf, herbicidal effect grade [7]: 0 (Herbicidal rate of 5% or less (almost no effect))
P: chickweed, herbicidal effect grade [8]: 0 (Herbicidal rate of 5% or less (almost no effect))
J: blackgrass, herbicidal effect grade [9]: 0 (Herbicidal rate of 5% or less (almost no effect))
L: windgrass, herbicidal effect grade [10]: 0 (Herbicidal rate of 5% or less (almost no effect))
K: Italian ryegrass, herbicidal effect grade ([11]; three weeks after application): 1 (Herbicidal rate of 5% or more and less than 20%)
R: persian speedwell, herbicidal effect grade ([12]; three weeks after application): 5 (Herbicidal rate of 90% or more (almost completely withered))
herbicidal effect on rice flat sedge (E) ([13]; 320 g/ha): 5 (Herbicidal rate of 90% or more (almost completely withered))
O: lambsquarters, herbicidal effect grade [14]: 3 (Herbicidal rate of 40% or more and less than 70%)
herbicidal effect on Chinese sprangletop (D) ([15]; 320 g/ha): 4 (Herbicidal rate of 70% or more and less than 90%)
J: blackgrass, herbicidal effect grade ([16]; three weeks after application): 0 (Herbicidal rate of 5% or less (almost no effect))
R: persian speedwell, herbicidal effect grade [17]: 5 (Herbicidal rate of 90% or more (almost completely withered))
F: southern crabgrass, herbicidal effect grade ([18]; three weeks after application): 5 (Herbicidal rate of 90% or more (almost completely withered))
H: barnyard grass, herbicidal effect grade [19]: 0 (Herbicidal rate of 5% or less (almost no effect))
I: wild oat, herbicidal effect grade [20]: 0 (Herbicidal rate of 5% or less (almost no effect))
G: green foxtail, herbicidal effect grade [21]: 3 (Herbicidal rate of 40% or more and less than 70%)
K: Italian ryegrass, herbicidal effect grade [22]: 0 (Herbicidal rate of 5% or less (almost no effect))
F: southern crabgrass, herbicidal effect grade [23]: 4 (Herbicidal rate of 70% or more and less than 90%)
L: windgrass, herbicidal effect grade ([24]; three weeks after application): 4 (Herbicidal rate of 70% or more and less than 90%)
H: barnyard grass, herbicidal effect grade ([25]; three weeks after application): 3 (Herbicidal rate of 40% or more and less than 70%)
I: wild oat, herbicidal effect grade ([26]; three weeks after application): 1 (Herbicidal rate of 5% or more and less than 20%)
Herbicidal effect, A: late watergrass [27, 33]: 3 (Herbicidal rate of 40% or more and less than 70%)
N: redroot pigweed, herbicidal effect grade [28]: 3 (Herbicidal rate of 40% or more and less than 70%)
Herbicidal effect, C: oval-leafed pondweed [29, 33]: 3 (Herbicidal rate of 40% or more and less than 70%)
P: chickweed, herbicidal effect grade ([30]; three weeks after application): 5 (Herbicidal rate of 90% or more (almost completely withered))
M: velvetleaf, herbicidal effect grade ([31]; three weeks after application): 4 (Herbicidal rate of 70% or more and less than 90%)
